Source: US6034246A, “2-arylbenzazole compounds” (Cancer Research Campaign Technology Limited, priority 1995, dated 2000)
pIC50: −log10 of the molar value.

What was measured:
[1] = tested on: xenotransplanted breast carcinomas; assay: in vivo activity in panel of xenotransplanted breast carcinomas; set-up: species or system human (xenotransplanted in nude mice); conditions: words; DF203 panel of four, DF129 two carcinomas
Experimental: (§1) In one typical set of experiments, four human breast carcinomas xenotransplanted into female Ncr: nu/nu (Taconic, Germantown, U.S.A.) or male Bom: NMRI-nu/nu mice (Bomholtgaard, Ry, Denmark) were used for the evaluation of antitumor activity. Mice weighing 20-25 g at the start of experiments were held under sterile conditions at 24-26° C., 50% relative humidity and 12 hours light-dark rhythm in laminar flow shelves. The animals received autoclaved food and bedding; the drinking water was filtered and acidified (pH4.0).
(§2) The following breast carcinoma cell lines were used: BO; MCF-7 (NCI, U.S.A.); MT-1 and MT-3. The tumors BO and MCF-7 are ER^+ models: the carcinomas MT-1 and MT-3 are ER^- ones. Tumors were transplanted subcutaneously (s.c.) as pieces (2×2 mm) into the left flank of 5-8 nude mice/experimental group. Drug treatment was initiated when the tumors reached a diameter of 4-5 mm. […] Tumor size was measured twice weekly with a caliper. Median tumor volume/group was related to the first treatment day and expressed as Relative Tumor Volume (RTV). For the estimation of toxicity, body weight was determined twice weekly and the mean percentage body weight change (BCC) was calculated. In one experiment blood was obtained from the retroorbital venous plexus of mice and blood cells were determined with a Coulter counter (Model T41).

MCF-7wt = assay: in vitro inhibitory activity against human breast tumour cell line MCF-7wt (Table 4); assay type: cell-based; conditions: initial seeding density 2.5 × 10^2 cells/well
Source text: (§3) Tables 1 to 4 at the end of the present description show in vitro test results obtained in various sets of experiments for the cytotoxic activity of several of the benzazole compounds concerned, including also for reference results for the compound CJM 126 and comparative results for compound DF129, when tested against a range of tumor cell lines which includes ovarian, lung and certain colon and renal cancer cells from the National Cancer Institute (USA) collection. As usual the results are expressed in terms of IS50 values (concentration or dosage required to reduce cell growth or proliferation by 50%) calculated from dose-effect curves plotted for cultures of the cells in question.
(§4) In carrying out the in vitro studies, the cytotoxicity assays may be carried out by a method corresponding substantially to the following example:
(§5) Cells were maintained in a continuous logarithmic culture in Dublecco's medium supplemented with 10% fetal calf serum and penicillin (100 IU/ml) and streptomycin ([…]). The cells were mildly trypsinized for passage and for use in assays. On day zero, 100 μl of trypsinized tumor cells (1×10^4 /ml) were plated in the wells of 96-well flat-bottom microtiter plates. The plates were incubated for 2 days at 37° C. and 5% CO2 in air to allow the cells to adhere and resume exponential growth prior to the addition of drugs.
(§6) On day two 50 μl of the highest drug concentration was added to the wells of column 12 and from there serially diluted 3-fold to column 1 by serial transfer of 50 μl using an 8-channel micropipette. The final volume of column 1 was adjusted to 100 μl. No additions were made to the wells of rows A and B, which served as controls. The plates were further incubated for 5 days at 37° C. and 5% CO2 in air. Each compound was tested in duplicate.
(§7) On day 7 the test was terminated by the addition of 100 μl saline containing 0.002% w/v propidium iodide (Sigma), 0.3% drawing ink (Staedtler "Marsmatic 745"--Trade Mark) and 0.5% Triton X-100. The plates were kept at 4° C. overnight before reading on an inverted microscope equipped with an automated scanning stage. Fluorescence intensity was measured in arbitrary units by a photomultiplier. An HP-87 computer controlled the movement of the stage and also collected and processed the data from the multiplier.
(§8) For each compound tested a dose-response curve was obtained and the IC50 value (the drug concentration at 50% inhibition of cell growth) was calculated.
(§9) *Initial seeding density 2.5 × 10^2 cells/well

MDA 468 = assay: in vitro inhibitory activity against human breast tumour cell line MDA 468 (Table 4); assay type: cell-based; conditions: initial seeding density 2.5 × 10^2 cells/well
Source text: as §3, §4, §5, §6, §7, §8, §9

MCF-7 = assay: in vivo antitumor test, human breast carcinoma MCF-7 xenotransplanted in nude mice; conditions: for evaluation / RTV, relative tumor volume (T/C %): qd 12, 19, 26; for RTV, relative tumor volume (T/C %): marked * significant versus control
Experimental: as §1
The following breast carcinoma cell lines were used: BO; MCF-7 (NCI, U.S.A.); MT-1 and MT-3. The tumors BO and MCF-7 are ER^+ models: the carcinomas MT-1 and MT-3 are ER^- ones. Tumors were transplanted subcutaneously (s.c.) as pieces (2×2 mm) into the left flank of 5-8 nude mice/experimental group. Drug treatment was initiated when the tumors reached a diameter of 4-5 mm. Compounds were solubized with Tween 80 (maximum 10% of final volume) and suspended in saline. Suspensions were preparted freshly for each drug administration and injected in a volume of 0.2 mL/20 g body weight employing a once-weekly schedule (x3). Tumor size was measured twice weekly with a caliper. Median tumor volume/group was related to the first treatment day and expressed as Relative Tumor Volume (RTV). For the estimation of toxicity, body weight was determined twice weekly and the mean percentage body weight change (BCC) was calculated. In one experiment blood was obtained from the retroorbital venous plexus of mice and blood cells were determined with a Coulter counter (Model T41).
Some of the in vivo test results are shown in Tables 5 and 6 at the end of the present description, and in FIG. 1 of the accompanying drawing which illustrates the results for measurements of in vivo activity of 2-(4'-amino-3'-methylphenyl) benzothiazole (DF203) against MCF7 in nude mice administered on days 12, 19 and 26.

LX4 = assay: in vitro inhibition of growth of human lung cancer cell line LX4 (Table 1); assay type: cell-based
Source text: as §3, §4, §5, §6, §7, §8

L23/R = assay: in vitro inhibition of growth of human lung cancer cell line L23/R (Table 1); assay type: cell-based
Source text: as §3, §4, §5, §6, §7, §8

L23/P = assay: in vitro inhibition of growth of human lung cancer cell line L23/P (Table 1); assay type: cell-based
Source text: as §3, §4, §5, §6, §7, §8

MOR/R = assay: in vitro inhibition of growth of human lung cancer cell line MOR/R (Table 1); assay type: cell-based; conditions: MOR/R (multidrug resistant line)
Source text: as §3, §4, §5, §6, §7, §8

Renal ACHN = assay: in vitro inhibitory activity against human renal cell line ACHN (Table 3); assay type: cell-based
Source text: as §3
(§10) In carrying out the in vitro studies, the cytotoxicity assays may be carried out by a method corresponding substantially to the following example: […]
as §7, with “An HP-87 computer controlled the movement of the stage and also collected and processed the data from the multiplier.” left out

[2] = tested on: human breast cancer cell lines; assay: in vitro inhibition of human breast cancer cell lines; assay type: cell-based; conditions: words, Table 4
Source text: as §3, §4, §5, §6, §7, §8

NCI HOP-92 = assay: in vitro inhibition of growth of human lung cancer cell line NCI HOP-92 (Table 1); assay type: cell-based
Source text: as §3, §10
as §7, with “An HP-87 computer controlled the movement of the stage and also collected and processed the data from the multiplier.” left out

SDBR3 = assay: in vitro inhibitory activity against human breast tumour cell line SDBR3 (Table 4); assay type: cell-based; conditions: initial seeding density 2.5 × 10^2 cells/well
Source text: as §3, §10
as §7, with “An HP-87 computer controlled the movement of the stage and also collected and processed the data from the multiplier.” left out

Prostatic DU 145 = assay: in vitro inhibitory activity against human prostatic cell line DU 145 (Table 3); assay type: cell-based
Source text: as §3, §10
as §7, with “An HP-87 computer controlled the movement of the stage and also collected and processed the data from the multiplier.” left out

OVCAR-4 = assay: in vitro activity against human ovarian cell line OVCAR-4 (Table 2); assay type: cell-based
Source text: as §3, §10
as §7, with “An HP-87 computer controlled the movement of the stage and also collected and processed the data from the multiplier.” left out

OVCAR-3 = assay: in vitro activity against human ovarian cell line OVCAR-3 (Table 2); assay type: cell-based
Source text: as §3, §10
as §7, with “An HP-87 computer controlled the movement of the stage and also collected and processed the data from the multiplier.” left out

Prostatic PC3 MAZ = assay: in vitro inhibitory activity against human prostatic cell line PC3 MAZ (Table 3); assay type: cell-based
Source text: as §3, §10
as §7, with “An HP-87 computer controlled the movement of the stage and also collected and processed the data from the multiplier.” left out

SK-OV-3 = assay: in vitro activity against human ovarian cell line SK-OV-3 (Table 2); assay type: cell-based
Source text: as §3, §10
as §7, with “An HP-87 computer controlled the movement of the stage and also collected and processed the data from the multiplier.” left out

Colon SW-620 = assay: in vitro inhibitory activity against human colon cell line SW-620 (Table 3); assay type: cell-based
Source text: as §3, §10
as §7, with “An HP-87 computer controlled the movement of the stage and also collected and processed the data from the multiplier.” left out

OVCAR-8 = assay: in vitro activity against human ovarian cell line OVCAR-8 (Table 2); assay type: cell-based
Source text: as §3, §10
as §7, with “An HP-87 computer controlled the movement of the stage and also collected and processed the data from the multiplier.” left out

MOR/P = assay: in vitro inhibition of growth of human lung cancer cell line MOR/P (Table 1); assay type: cell-based; conditions: MOR/P (parental line)
Source text: as §3, §4, §5, §6, §7, §8

MT-1 = assay: in vivo antitumor test, human breast carcinoma MT-1 xenotransplanted in nude mice; conditions: MT-1, optimum dose 6.25 mg/Kg/inj i.p., qd 7, 14, 21
Experimental: as §1, §2

MT-3 = assay: in vivo antitumor test, human breast carcinoma MT-3 xenotransplanted in nude mice; conditions: MT-3, optimum dose 12.5 mg/Kg/inj i.p., qd 7, 14, 21
Experimental: as §1, §2

[3] = MCF-7, optimum dose 200 mg/Kg/inj i.p.
[4] = marked * significant versus control
[5] = MCF-7, optimum dose 12.5 mg/Kg/inj i.p.

Row | SMILES | in vivo activity in xenotransplanted breast carcinomas [1] | pIC50 (MCF-7wt) | pIC50 (MDA 468) | pIC50 (LX4) | pIC50 (L23/R) | pIC50 (L23/P) | pIC50 (MOR/R) | pIC50 (Renal ACHN) | potency against breast cancer cells relative to CJM 126 [2] | pIC50 (Prostatic DU 145) | pIC50 (OVCAR-4) | pIC50 (Prostatic PC3 MAZ) | pIC50 (SK-OV-3) | pIC50 (Colon SW-620) | pIC50 (OVCAR-8) | pIC50 (MOR/P) | also measured
1 | Nc1ccc(-c2nc3ccccc3s2)cc1I [DF129, 2-(4'-amino-3'-iodophenyl)benzothiazole] | only borderline activity in one of the models | > 9.00 | > 9.00 | < 5.00 | < 5.00 | 7.00 | 7.00 | < 4.00 | more potent than even the compound CJM 126 | 4.28 | 6.70 | 4.27 | < 4.00 | ~4.00 | < 4.00 | 6.52 | evaluation (MCF-7; [3]): (+) (T/C % ≥ 51%); RTV, relative tumor volume (T/C %) (MCF-7; [3]): 68%; pIC50 (NCI HOP-92): > 8.00; pIC50 (SDBR3): > 9.00; pIC50 (OVCAR-3): 6.22
2 | Cc1cc(-c2nc3ccccc3s2)ccc1N [DF203, 2-(4'-amino-3'-methylphenyl)benzothiazole] | consistent tumor growth inhibition in all four tumors | > 9.00 | > 9.00 | < 5.00 | < 5.00 | 5.00 | 7.15 | ~4.00 | more potent than even the compound CJM 126 | < 4.00 | > 6.00 | < 4.00 | < 4.00 | < 4.00 | < 4.00 | 7.00 | evaluation (MT-1): ++ (T/C = 21-35%); RTV, relative tumor volume (T/C %) (MT-1; [4]): 34%; evaluation (MT-3): ++ (T/C = 21-35%); RTV, relative tumor volume (T/C %) (MT-3; [4]): 22%; evaluation (MCF-7; [5]): ++ (T/C = 21-35%); RTV, relative tumor volume (T/C %) (MCF-7; [5]): 31%; tumor status of surviving animal (MCF-7; top dose 25 mg/Kg): tumor free
